Experimental data: patent EP0556789A2, “Substituted biphenyl derivatives, therapeutic agents containing them and process for their preparation” (Dr. Karl Thomae GmbH, priority 1992, dated 1993)

Target: T1, Angiotensin II-Rezeptor (Rattus norvegicus, UniProt P25095)
T1 construct: Das Gewebe (Rattenlunge) wird in Tris-Puffer; from tissue; host or cells: rat lung (membrane pellet of the homogenate)
T1 sequence (P25095 1-359): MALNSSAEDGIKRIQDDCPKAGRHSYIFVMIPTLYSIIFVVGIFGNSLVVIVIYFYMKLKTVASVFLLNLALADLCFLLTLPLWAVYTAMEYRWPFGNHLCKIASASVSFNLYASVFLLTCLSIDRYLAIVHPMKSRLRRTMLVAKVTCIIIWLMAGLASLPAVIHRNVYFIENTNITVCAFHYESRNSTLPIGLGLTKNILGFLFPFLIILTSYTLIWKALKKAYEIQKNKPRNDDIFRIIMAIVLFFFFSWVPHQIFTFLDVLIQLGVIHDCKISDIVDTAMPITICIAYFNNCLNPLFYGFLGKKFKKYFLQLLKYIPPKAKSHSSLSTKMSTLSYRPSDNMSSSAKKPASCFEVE
Assay: Angiotensin II receptor binding ([125I]-angiotensin II displacement, rat lung homogenate)
Set-up: species or system Ratte
Settings: Rattenlunge homogenate, 50 pM [125I]-Angiotensin II, 60 min at 37 °C
Description: Methodenbeschreibung Angiotensin II-Rezeptorbindung
Das Gewebe (Rattenlunge) wird in Tris-Puffer (50 mMol Tris, 150 mMol NaCI, 5 mMol EDTA, pH 7.40) homogenisiert und zweimal je 20 Min. bei 20.000 x g zentrifugiert. Das endgültige Pellet wird in Inkubations-Puffer (50 mMol Tris, 5 mMol MgCI2, 0,2 % BSA, pH 7.40) 1:75, bezogen auf das Feuchtgewicht des Gewebes, resuspendiert. Je 0,1 ml Homogenat wird für 60 Min. bei 37 ° C mit 50 pM [125']-Angiotensin II (NEN, Dreieich, FRG) und steigenden Konzentrationen der Testsubstanz in einem Gesamtvolumen von 0,25 ml inkubiert. Die Inkubation wird durch rasche Filtration durch Glasfiber-Filtermatten beendet. Die Filter werden je 4 ml eiskaltem Puffer (25 mMol Tris, 2.5 mMol MgCI2, 0,1 % BSA, pH 7,40) gewaschen. Die gebundene Radioaktivität wird in einem Gamma-Counter ermittelt. Aus der Dosis-Wirkungskurve wird der entsprechende 1C50-Wert ermittelt.

IC50 [nM] | Compound
270 | CCCc1nc2c(C)cccc2n1Cc1ccc(-c2ccccc2)c(CCC(=O)O)c1 [Substanz B, 2-n-Propyl-4-methyl-1-[3-(2-hydroxycarbonyl-ethyl)-4-phenyl-benzyl]-benzimidazol]
18 | CCCc1nc2c(C)cc(-c3nc4ccccc4n3C)cc2n1Cc1ccc(-c2ccccc2)c(CCC(=O)O)c1 [Substanz C, 2-n-Propyl-4-methyl-6-(1-methyl-benzimidazol-2-yl)-1-[3-(2-hydroxycarbonyl-ethyl)-4-phenyl-benzyl]-benzimidazol]
73 | CCc1nc2c(C)cc(C)nc2n1Cc1ccc(-c2ccccc2)c(Cc2nnn[nH]2)c1 [Substanz D, 2-Ethyl-5,7-dimethyl-3-[3-(tetrazol-5-yl-methyl)-4-phenyl-benzyl]-imidazo[4,5-b]pyridin]
370 | CCCc1nc2c(C)cccc2n1Cc1ccc(-c2ccccc2)c(Cc2nnn[nH]2)c1 [Substanz A, 2-n-Propyl-4-methyl-1-[3-(tetrazol-5-yl-methyl)-4-phenyl-benzyl]-benzimidazol]
6.9 | CCCc1nc2c(C)cc(-c3cn(C(C)C)cn3)cc2n1Cc1ccc(-c2ccccc2)c(CCc2nnn[nH]2)c1 [Substanz E, 2-n-Propyl-4-methyl-6-(1-isopropyl-imidazol-4-yl)-1-[3-(2-tetrazol-5-yl-ethyl)-4-phenyl-benzyl]-benzimidazol]
